In ChEMBL document CHEMBL2390846, “Small-molecule pyrimidine inhibitors of the cdc2-like (Clk) and dual specificity tyrosine phosphorylation-regulated (Dyrk) kinases: development of chemical probe ML315” (Bioorg Med Chem Lett, 2013):

Experiments:
[1] = biological target: T1, Dual specificity protein kinase CLK4 (Homo sapiens, UniProt Q9HAZ1); assay: Inhibition of CLK4 (unknown origin) by bioluminescence assay
[2] = biological target: T2, Dual specificity tyrosine-phosphorylation-regulated kinase 1A (Homo sapiens, UniProt Q13627); assay: Inhibition of DYRK1A (unknown origin) by bioluminescence assay
[3] = biological target: T2, Dual specificity tyrosine-phosphorylation-regulated kinase 1A
[4] = biological target: Dual specificity tyrosine-phosphorylation-regulated kinase 1B (Homo sapiens, UniProt Q9Y463)
Sequence of Dual specificity tyrosine-phosphorylation-regulated kinase 1B (Q9Y463 whole entry): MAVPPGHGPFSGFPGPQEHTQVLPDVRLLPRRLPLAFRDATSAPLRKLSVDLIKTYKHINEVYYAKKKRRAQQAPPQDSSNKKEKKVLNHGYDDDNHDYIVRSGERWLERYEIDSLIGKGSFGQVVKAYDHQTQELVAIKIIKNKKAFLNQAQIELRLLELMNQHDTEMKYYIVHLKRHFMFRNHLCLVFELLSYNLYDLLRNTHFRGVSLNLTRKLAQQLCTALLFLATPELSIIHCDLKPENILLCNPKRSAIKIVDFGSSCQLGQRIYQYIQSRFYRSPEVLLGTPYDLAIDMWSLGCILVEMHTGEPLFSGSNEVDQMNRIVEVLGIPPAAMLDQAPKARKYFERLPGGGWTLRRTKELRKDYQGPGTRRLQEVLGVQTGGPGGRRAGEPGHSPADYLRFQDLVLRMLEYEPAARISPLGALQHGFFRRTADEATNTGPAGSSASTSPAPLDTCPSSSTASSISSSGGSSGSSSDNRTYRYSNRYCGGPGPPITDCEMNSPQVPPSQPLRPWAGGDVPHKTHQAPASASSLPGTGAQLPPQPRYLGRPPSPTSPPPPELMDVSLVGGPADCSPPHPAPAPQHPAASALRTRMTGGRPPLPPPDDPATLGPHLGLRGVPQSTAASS

[5] = biological target: Dual specificity protein kinase CLK1 (Homo sapiens, UniProt P49759)
Sequence of Dual specificity protein kinase CLK1 (P49759 whole entry): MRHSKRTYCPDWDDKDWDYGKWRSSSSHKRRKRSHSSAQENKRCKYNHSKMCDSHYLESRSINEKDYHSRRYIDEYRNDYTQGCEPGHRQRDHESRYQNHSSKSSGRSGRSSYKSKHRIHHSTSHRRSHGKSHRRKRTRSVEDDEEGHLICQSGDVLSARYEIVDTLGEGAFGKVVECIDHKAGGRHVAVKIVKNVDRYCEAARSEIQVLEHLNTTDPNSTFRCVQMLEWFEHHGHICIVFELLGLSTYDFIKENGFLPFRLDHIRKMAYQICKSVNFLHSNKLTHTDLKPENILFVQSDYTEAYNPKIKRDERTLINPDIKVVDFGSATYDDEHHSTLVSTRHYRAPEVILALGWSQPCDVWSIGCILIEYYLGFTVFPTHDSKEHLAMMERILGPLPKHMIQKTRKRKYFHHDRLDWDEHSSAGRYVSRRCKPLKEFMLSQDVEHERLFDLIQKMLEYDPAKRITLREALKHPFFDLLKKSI

[6] = biological target: Dual specificity protein kinase CLK2 (Homo sapiens, UniProt P49760)
Sequence of Dual specificity protein kinase CLK2 (P49760 whole entry): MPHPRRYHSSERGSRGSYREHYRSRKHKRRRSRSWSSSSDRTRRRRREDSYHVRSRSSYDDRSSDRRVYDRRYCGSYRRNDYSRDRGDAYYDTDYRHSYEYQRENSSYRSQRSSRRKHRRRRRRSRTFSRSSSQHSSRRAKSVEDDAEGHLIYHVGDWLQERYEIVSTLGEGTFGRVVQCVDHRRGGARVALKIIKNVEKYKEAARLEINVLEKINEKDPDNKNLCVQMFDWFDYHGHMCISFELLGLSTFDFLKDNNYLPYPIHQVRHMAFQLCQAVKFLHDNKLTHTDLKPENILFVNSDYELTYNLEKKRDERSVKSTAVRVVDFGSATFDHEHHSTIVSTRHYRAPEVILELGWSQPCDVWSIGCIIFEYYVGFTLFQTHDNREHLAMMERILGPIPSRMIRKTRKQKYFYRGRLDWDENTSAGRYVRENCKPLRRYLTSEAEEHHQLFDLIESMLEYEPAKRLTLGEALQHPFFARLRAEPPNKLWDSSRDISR

[7] = biological target: T1, Dual specificity protein kinase CLK4

T1 sequence (Q9HAZ1 whole entry): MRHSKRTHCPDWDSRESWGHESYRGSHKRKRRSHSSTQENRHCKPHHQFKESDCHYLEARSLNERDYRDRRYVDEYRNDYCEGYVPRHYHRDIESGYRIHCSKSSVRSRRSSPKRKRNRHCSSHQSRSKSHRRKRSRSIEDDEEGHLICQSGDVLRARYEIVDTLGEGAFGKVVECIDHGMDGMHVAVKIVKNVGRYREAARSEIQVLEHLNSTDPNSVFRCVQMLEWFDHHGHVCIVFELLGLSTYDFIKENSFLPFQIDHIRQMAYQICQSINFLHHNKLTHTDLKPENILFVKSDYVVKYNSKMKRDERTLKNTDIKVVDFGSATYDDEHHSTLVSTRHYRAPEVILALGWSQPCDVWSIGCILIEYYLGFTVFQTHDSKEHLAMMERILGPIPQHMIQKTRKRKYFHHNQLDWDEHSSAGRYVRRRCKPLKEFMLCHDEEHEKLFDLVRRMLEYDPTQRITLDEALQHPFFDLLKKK

SMILES: N#Cc1cccc(-c2nccc(NCc3ccccc3)n2)c1
- IC50 ([1]; read-out: IC50): 14.1 µM

SMILES: c1cncc(CNc2ncncc2-c2ccc3c(c2)OCO3)c1
- IC50 ([2]; read-out: IC50): 26 µM
- IC50 [3]: > 10 µM
- IC50 [4]: > 10 µM
- IC50 [5]: 4.8 µM
- IC50 [6]: > 10 µM

SMILES: COc1cccc(-c2nccc(NCc3ccccc3)n2)c1
- IC50 ([1]; read-out: IC50): 15.8 µM

SMILES: c1cncc(-c2cc(-n3ccnc3)ncn2)c1
- IC50 ([1]; read-out: IC50): 0.79 µM

SMILES: c1cncc(CNc2ccnc(-c3ccc4c(c3)OCO4)n2)c1
- IC50 ([1]; read-out: IC50): 0.063 µM

SMILES: c1cncc(CNc2cc(-c3ccc4c(c3)OCO4)ncn2)c1
- IC50 ([2]; read-out: IC50): 16.4 µM
- IC50 ([1]; read-out: IC50): 6.54 µM

SMILES: CN(C)c1ccc(-c2nccc(NCc3ccccc3)n2)cc1
- IC50 [2]: Not Active
- IC50 [1]: Not Active

SMILES: c1ccc(CNc2ccnc(-c3cccnc3)n2)cc1
- IC50 ([1]; read-out: IC50): 31.6 µM

SMILES: c1ccc(CNc2ccnc(-c3ccc4c(c3)OCO4)n2)cc1
- IC50 ([2]; read-out: IC50): 26 µM
- IC50 ([1]; read-out: IC50): 23.2 µM

SMILES: COc1ccccc1CNc1ncncc1-c1ccc2c(c1)OCO2
- IC50 ([1]; read-out: IC50): 2.2 µM

SMILES: c1cncc(CNc2ccnc(-c3ccc4cn[nH]c4c3)n2)c1
- IC50 ([2]; read-out: IC50): 2.07 µM
- IC50 ([1]; read-out: IC50): 0.29 µM
- IC50 [3]: 1.43 µM
- IC50 [4]: 0.829 µM
- IC50 [7]: 1.29 µM
- IC50 [5]: 1.6 µM
- IC50 [6]: 1.9 µM

SMILES: Clc1ccc(CNc2ncncc2-c2ccc3c(c2)OCO3)cc1
- IC50 ([2]; read-out: IC50): 26 µM
- IC50 ([1]; read-out: IC50): 5.82 µM
- IC50 [3]: 4.58 µM
- IC50 [4]: 8.86 µM
- IC50 [7]: 9.28 µM
- IC50 [5]: 2.37 µM
- IC50 [6]: 8.79 µM

SMILES: c1cncc(CNc2nccc(-c3ccc4cn[nH]c4c3)n2)c1
- IC50 ([2]; read-out: IC50): 0.21 µM
- IC50 ([1]; read-out: IC50): 0.04 µM

SMILES: Clc1ccc(CNc2ccnc(-c3ccc4[nH]ncc4c3)n2)cc1Cl
- IC50 ([2]; read-out: IC50): 4.63 µM
- IC50 [3]: 2.35 µM
- IC50 [4]: 0.514 µM
- IC50 [5]: 1.78 µM

SMILES: COc1ccc(-c2nccc(NCc3ccc(C)cc3)n2)cc1
- IC50 [2]: Not Active
- IC50 [1]: Not Active

SMILES: Fc1cc(CNc2ccnc(-c3ccc4c(c3)OCO4)n2)ccc1Cl
- IC50 ([1]; read-out: IC50): 13 µM

SMILES: Fc1ccc(CNc2ccnc(-c3ccc4c(c3)OCO4)n2)cc1F
- IC50 ([1]; read-out: IC50): 10.4 µM

SMILES: Fc1cc(F)cc(CNc2ccnc(-c3ccc4c(c3)OCO4)n2)c1
- IC50 ([1]; read-out: IC50): 5.2 µM

SMILES: Fc1ccc(CNc2ccnc(-c3ccc4c(c3)OCO4)n2)cc1Cl
- IC50 ([1]; read-out: IC50): 5.2 µM

SMILES: Fc1ccc(CNc2ccnc(-c3ccc4c(c3)OCO4)n2)cc1Br
- IC50 ([1]; read-out: IC50): 13 µM

SMILES: Fc1cc(CNc2ccnc(-c3ccc4c(c3)OCO4)n2)cc(F)c1F
- IC50 ([1]; read-out: IC50): 8.2 µM

SMILES: Clc1ccc(CNc2ncncc2-c2ccc3c(c2)OCO3)cc1Cl
- IC50 ([2]; read-out: IC50): 4.12 µM
- IC50 ([1]; read-out: IC50): 0.58 µM
- IC50 [3]: 3.45 µM
- IC50 [4]: > 10 µM
- IC50 [7]: 0.526 µM
- IC50 [5]: 0.626 µM
- IC50 [6]: 1.56 µM

SMILES: Clc1ccc(CNc2cc(-c3ccc4c(c3)OCO4)ncn2)cc1
- IC50 ([1]; read-out: IC50): 2.32 µM

SMILES: Clc1ccc(CNc2cc(-c3ccc4c(c3)OCO4)ncn2)cc1Cl
- IC50 ([1]; read-out: IC50): 4.63 µM

SMILES: Clc1cc(Cl)cc(CNc2cc(-c3ccc4c(c3)OCO4)ncn2)c1
- IC50 ([1]; read-out: IC50): 1.64 µM

SMILES: Clc1ccc(CNc2ccnc(-c3ccc4c(c3)OCO4)n2)cn1
- IC50 ([2]; read-out: IC50): 29.2 µM
- IC50 ([1]; read-out: IC50): 29.2 µM

SMILES: Fc1cncc(CNc2ccnc(-c3ccc4c(c3)OCO4)n2)c1
- IC50 ([1]; read-out: IC50): 8.2 µM

SMILES: Clc1cncc(CNc2ccnc(-c3ccc4c(c3)OCO4)n2)c1
- IC50 ([1]; read-out: IC50): 18.4 µM

SMILES: Brc1cncc(CNc2ccnc(-c3ccc4c(c3)OCO4)n2)c1
- IC50 ([1]; read-out: IC50): 8.2 µM

SMILES: Cc1ccc(CNc2ccnc(-c3ccc4c(c3)OCO4)n2)cn1
- IC50 ([1]; read-out: IC50): 32.8 µM

SMILES: c1ccc2ncc(CNc3ccnc(-c4ccc5c(c4)OCO5)n3)cc2c1
- IC50 ([1]; read-out: IC50): 41.2 µM

SMILES: c1ccc(CNc2ccnc(-c3ccc4c(c3)OCO4)n2)nc1
- IC50 ([1]; read-out: IC50): 9.2 µM

SMILES: c1cc(CNc2ccnc(-c3ccc4c(c3)OCO4)n2)ccn1
- IC50 ([1]; read-out: IC50): 23.2 µM

SMILES: Clc1cc(Cl)cc(CNc2ccnc(-c3ccc4c(c3)OCO4)n2)c1
- IC50 [2]: Not Active
- IC50 ([1]; read-out: IC50): 4.1 µM

SMILES: Brc1ccc(CNc2ccnc(-c3ccc4c(c3)OCO4)n2)cc1Br
- IC50 [2]: Not Active
- IC50 ([1]; read-out: IC50): 9.2 µM

SMILES: Brc1cc(Br)cc(CNc2ccnc(-c3ccc4c(c3)OCO4)n2)c1
- IC50 [2]: Not Active
- IC50 ([1]; read-out: IC50): 9.2 µM

SMILES: COc1ccc(CNc2ccnc(-c3ccc(OC)cc3)n2)cc1
- IC50 [2]: Not Active
- IC50 ([1]; read-out: IC50): 36.8 µM

SMILES: c1cnc(-c2ccc3c(c2)OCO3)nc1
- IC50 [2]: Not Active
- IC50 [1]: Not Active

SMILES: N#Cc1cccc(-c2ncccn2)c1
- IC50 [2]: Not Active
- IC50 ([1]; read-out: IC50): 26 µM

SMILES: COc1cccc(-c2ncccn2)c1
- IC50 ([1]; read-out: IC50): 16.4 µM

SMILES: CN(C)c1ccc(-c2ncccn2)cc1
- IC50 [2]: Not Active
- IC50 [1]: Not Active

SMILES: Cc1noc(C)c1-c1ncccn1
- IC50 [2]: Not Active
- IC50 [1]: Not Active

SMILES: COc1ccc(-c2ncccn2)cc1
- IC50 [2]: Not Active
- IC50 ([1]; read-out: IC50): 29.2 µM

SMILES: COc1cccc(-c2ccnc(NCc3ccc(Cl)cc3)n2)c1
- IC50 ([2]; read-out: IC50): 7.33 µM
- IC50 ([1]; read-out: IC50): 5.82 µM
- IC50 [3]: 6.36 µM
- IC50 [4]: 6.78 µM
- IC50 [7]: 6.81 µM
- IC50 [5]: > 10 µM
- IC50 [6]: > 10 µM

SMILES: COc1cccc(-c2ccnc(NCc3ccc(Cl)c(Cl)c3)n2)c1
- IC50 ([2]; read-out: IC50): 5.82 µM
- IC50 ([1]; read-out: IC50): 3.68 µM
- IC50 [3]: 4.65 µM
- IC50 [4]: > 10 µM
- IC50 [7]: 3.86 µM
- IC50 [5]: 5.46 µM
- IC50 [6]: > 10 µM

SMILES: Clc1ccc(CNc2nccc(-c3ccc4c(c3)OCO4)n2)cc1
- IC50 ([1]; read-out: IC50): 0.05 µM

SMILES: COc1ccc(-c2ccnc(NCc3ccc(Cl)c(Cl)c3)n2)cc1OC
- IC50 ([2]; read-out: IC50): 26 µM
- IC50 ([1]; read-out: IC50): 26 µM
- IC50 [7]: > 10 µM
- IC50 [5]: > 10 µM

SMILES: COc1ccc(-c2nccc(NCc3ccccc3)n2)cc1
- IC50 [2]: Not Active
- IC50 ([1]; read-out: IC50): 29.2 µM

SMILES: Clc1ccc(CNc2ccnc(-c3ccc4c(c3)OCO4)n2)cc1Cl
- IC50 [2]: Not Active
- IC50 ([1]; read-out: IC50): 26 µM

SMILES: COc1cccc(-c2nccc(NCc3ccc(Cl)c(Cl)c3)n2)c1
- IC50 [2]: Not Active
- IC50 ([1]; read-out: IC50): 14.6 µM

SMILES: CN(C)c1ccc(-c2nccc(NCc3ccc(Cl)c(Cl)c3)n2)cc1
- IC50 [2]: Not Active
- IC50 [1]: Not Active

SMILES: Cc1noc(C)c1-c1nccc(NCc2ccc(Cl)c(Cl)c2)n1
- IC50 [2]: Not Active
- IC50 [1]: Not Active

SMILES: Clc1ccc(CNc2ccnc(-c3cccnc3)n2)cc1Cl
- IC50 ([1]; read-out: IC50): 13 µM

SMILES: COc1ccc(-c2nccc(NCc3ccc(Cl)c(Cl)c3)n2)cc1
- IC50 [2]: Not Active
- IC50 ([1]; read-out: IC50): 14.6 µM

SMILES: Cc1ccc(CNc2ccnc(-c3ccc4c(c3)OCO4)n2)cc1
- IC50 [2]: Not Active
- IC50 ([1]; read-out: IC50): 23.2 µM

SMILES: Cc1ccc(CNc2ccnc(-c3cccc(C#N)c3)n2)cc1
- IC50 ([1]; read-out: IC50): 23.2 µM

SMILES: COc1cccc(-c2nccc(NCc3ccc(C)cc3)n2)c1
- IC50 ([1]; read-out: IC50): 41.2 µM

SMILES: Cc1ccc(CNc2ccnc(-c3ccc(N(C)C)cc3)n2)cc1
- IC50 [2]: Not Active
- IC50 [1]: Not Active

SMILES: Cc1ccc(CNc2ccnc(-c3c(C)noc3C)n2)cc1
- IC50 [2]: Not Active
- IC50 [1]: Not Active

SMILES: Cc1ccc(CNc2ccnc(-c3cccnc3)n2)cc1
- IC50 [2]: Not Active
- IC50 ([1]; read-out: IC50): 26 µM

SMILES: Clc1ccc(CNc2ccnc(-c3ccc4c(c3)OCO4)n2)cc1
- IC50 [2]: Not Active
- IC50 ([1]; read-out: IC50): 41.2 µM

SMILES: COc1cccc(-c2nccc(NCc3ccc(Cl)cc3)n2)c1
- IC50 ([1]; read-out: IC50): 13 µM

SMILES: CN(C)c1ccc(-c2nccc(NCc3ccc(Cl)cc3)n2)cc1
- IC50 [2]: Not Active
- IC50 [1]: Not Active

SMILES: Cc1noc(C)c1-c1nccc(NCc2ccc(Cl)cc2)n1
- IC50 [2]: Not Active
- IC50 [1]: Not Active

SMILES: Clc1ccc(CNc2ccnc(-c3cccnc3)n2)cc1
- IC50 ([1]; read-out: IC50): 16.4 µM

SMILES: COc1ccc(-c2nccc(NCc3ccc(Cl)cc3)n2)cc1
- IC50 [2]: Not Active
- IC50 ([1]; read-out: IC50): 13 µM

SMILES: COc1ccc(CNc2ccnc(-c3ccc4c(c3)OCO4)n2)cc1
- IC50 [1]: Not Active

SMILES: COc1ccc(CNc2ccnc(-c3cccc(C#N)c3)n2)cc1
- IC50 ([1]; read-out: IC50): 9.2 µM

SMILES: COc1ccc(CNc2ccnc(-c3cccc(OC)c3)n2)cc1
- IC50 ([1]; read-out: IC50): 23.2 µM

SMILES: COc1ccc(CNc2ccnc(-c3ccc(N(C)C)cc3)n2)cc1
- IC50 [2]: Not Active
- IC50 [1]: Not Active

SMILES: COc1ccc(CNc2ccnc(-c3c(C)noc3C)n2)cc1
- IC50 [2]: Not Active
- IC50 [1]: Not Active
